{"source": "PubChem BioAssay (NCI)", "assay_in_all_cases": "NCI anticancer screen, dose series, 48 h", "key": {"KM12 colon": {"test_system": "KM12 colon"}, "CAKI-1 renal": {"test_system": "CAKI-1 renal"}, "HCT-116 colon": {"test_system": "HCT-116 colon"}, "OVCAR-8 ovarian": {"test_system": "OVCAR-8 ovarian"}, "SK-MEL-2 melanoma": {"test_system": "SK-MEL-2 melanoma"}, "NCI-H226 lung": {"test_system": "NCI-H226 lung"}, "SNB-75 CNS": {"test_system": "SNB-75 CNS"}, "EKVX NSCLC": {"test_system": "EKVX NSCLC"}, "BT-549 breast": {"test_system": "BT-549 breast"}, "NCI-H23 lung": {"test_system": "NCI-H23 lung"}, "MDA-N": {"test_system": "MDA-N"}, "RPMI-8226 leukemia": {"test_system": "RPMI-8226 leukemia"}, "A549 NSCLC": {"test_system": "A549 NSCLC"}, "SK-MEL-5 melanoma": {"test_system": "SK-MEL-5 melanoma"}, "CCRF-CEM leukemia": {"test_system": "CCRF-CEM leukemia"}, "HT29 colon": {"test_system": "HT29 colon"}, "MDA-MB-231 breast": {"test_system": "MDA-MB-231 breast"}, "SN12C renal": {"test_system": "SN12C renal"}, "HCC-2998 colon": {"test_system": "HCC-2998 colon"}, "LOX IMVI melanoma": {"test_system": "LOX IMVI melanoma"}, "K-562 leukemia": {"test_system": "K-562 leukemia"}, "ACHN renal": {"test_system": "ACHN renal"}, "RXF 393 renal": {"test_system": "RXF 393 renal"}, "IGROV1 ovarian": {"test_system": "IGROV1 ovarian"}, "M14 melanoma": {"test_system": "M14 melanoma"}, "UO-31 renal": {"test_system": "UO-31 renal"}, "UACC-62 melanoma": {"test_system": "UACC-62 melanoma"}, "HOP-92 NSCLC": {"test_system": "HOP-92 NSCLC"}, "OVCAR-5 ovarian": {"test_system": "OVCAR-5 ovarian"}, "HL-60(TB) leukemia": {"test_system": "HL-60(TB) leukemia"}, "HOP-62 NSCLC": {"test_system": "HOP-62 NSCLC"}, "OVCAR-3 ovarian": {"test_system": "OVCAR-3 ovarian"}, "MDA-MB-435": {"test_system": "MDA-MB-435"}, "NCI-H522 lung": {"test_system": "NCI-H522 lung"}, "T-47D breast": {"test_system": "T-47D breast"}, "PC-3 prostate": {"test_system": "PC-3 prostate"}, "OVCAR-4 ovarian": {"test_system": "OVCAR-4 ovarian"}, "MALME-3M melanoma": {"test_system": "MALME-3M melanoma"}, "SF-539 CNS": {"test_system": "SF-539 CNS"}, "SK-MEL-28 melanoma": {"test_system": "SK-MEL-28 melanoma"}, "NCI/ADR-RES ovarian": {"test_system": "NCI/ADR-RES ovarian"}, "TK-10 renal": {"test_system": "TK-10 renal"}, "DU-145 prostate": {"test_system": "DU-145 prostate"}, "MCF7 breast": {"test_system": "MCF7 breast"}, "SK-OV-3 ovarian": {"test_system": "SK-OV-3 ovarian"}, "HCT-15 colon": {"test_system": "HCT-15 colon"}, "SR leukemia": {"test_system": "SR leukemia"}, "NCI-H460 lung": {"test_system": "NCI-H460 lung"}, "MOLT-4 leukemia": {"test_system": "MOLT-4 leukemia"}, "COLO 205 colon": {"test_system": "COLO 205 colon"}, "SNB-19 CNS": {"test_system": "SNB-19 CNS"}, "SW-620 colon": {"test_system": "SW-620 colon"}, "HS 578T breast": {"test_system": "HS 578T breast"}, "UACC-257 melanoma": {"test_system": "UACC-257 melanoma"}, "U251 CNS": {"test_system": "U251 CNS"}, "786-0 renal": {"test_system": "786-0 renal"}, "SF-268 CNS": {"test_system": "SF-268 CNS"}, "A498 renal": {"test_system": "A498 renal"}, "SF-295 CNS": {"test_system": "SF-295 CNS"}}, "note": "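These data come from cells grown in 96-well plates and exposed to compound for 48 hours at five concentrations. TGI denotes the concentration required for complete inhibition of growth.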"}
{"smiles": "Cn1ccnc1Sc1ccc(/C=N/NC(=O)c2ccccc2[N+](=O)[O-])cc1[N+](=O)[O-]", "values": [{"measurement": "TGI", "setting": "KM12 colon", "value": "> 100", "unit": "µM"}, {"measurement": "TGI", "setting": "CAKI-1 renal", "value": "> 100", "unit": "µM"}, {"measurement": "TGI", "setting": "HCT-116 colon", "value": "> 100", "unit": "µM"}, {"measurement": "TGI", "setting": "OVCAR-8 ovarian", "value": "> 100", "unit": "µM"}, {"measurement": "TGI", "setting": "SK-MEL-2 melanoma", "value": "> 100", "unit": "µM"}, {"measurement": "TGI", "setting": "NCI-H226 lung", "value": "> 100", "unit": "µM"}, {"measurement": "TGI", "setting": "SNB-75 CNS", "value": "> 100", "unit": "µM"}, {"measurement": "TGI", "setting": "EKVX NSCLC", "value": "> 100", "unit": "µM"}, {"measurement": "TGI", "setting": "BT-549 breast", "value": "> 100", "unit": "µM"}, {"measurement": "TGI", "setting": "NCI-H23 lung", "value": "> 100", "unit": "µM"}, {"measurement": "TGI", "setting": "MDA-N", "value": "> 100", "unit": "µM"}, {"measurement": "TGI", "setting": "RPMI-8226 leukemia", "value": "> 100", "unit": "µM"}, {"measurement": "TGI", "setting": "A549 NSCLC", "value": "> 100", "unit": "µM"}, {"measurement": "TGI", "setting": "SK-MEL-5 melanoma", "value": "> 100", "unit": "µM"}, {"measurement": "TGI", "setting": "CCRF-CEM leukemia", "value": "> 100", "unit": "µM"}, {"measurement": "TGI", "setting": "HT29 colon", "value": "> 100", "unit": "µM"}, {"measurement": "TGI", "setting": "MDA-MB-231 breast", "value": 97.6, "unit": "µM"}, {"measurement": "TGI", "setting": "SN12C renal", "value": "> 100", "unit": "µM"}, {"measurement": "TGI", "setting": "HCC-2998 colon", "value": 95.6, "unit": "µM"}, {"measurement": "TGI", "setting": "LOX IMVI melanoma", "value": "> 100", "unit": "µM"}, {"measurement": "TGI", "setting": "K-562 leukemia", "value": "> 100", "unit": "µM"}, {"measurement": "TGI", "setting": "ACHN renal", "value": "> 100", "unit": "µM"}, {"measurement": "TGI", "setting": "RXF 393 renal", "value": "> 100", "unit": "µM"}, {"measurement": "TGI", "setting": "IGROV1 ovarian", "value": "> 100", "unit": "µM"}, {"measurement": "TGI", "setting": "M14 melanoma", "value": "> 100", "unit": "µM"}, {"measurement": "TGI", "setting": "UO-31 renal", "value": "> 100", "unit": "µM"}, {"measurement": "TGI", "setting": "UACC-62 melanoma", "value": "> 100", "unit": "µM"}, {"measurement": "TGI", "setting": "HOP-92 NSCLC", "value": "> 100", "unit": "µM"}, {"measurement": "TGI", "setting": "OVCAR-5 ovarian", "value": "> 100", "unit": "µM"}, {"measurement": "TGI", "setting": "HL-60(TB) leukemia", "value": "> 100", "unit": "µM"}, {"measurement": "TGI", "setting": "HOP-62 NSCLC", "value": "> 100", "unit": "µM"}, {"measurement": "TGI", "setting": "OVCAR-3 ovarian", "value": "> 100", "unit": "µM"}, {"measurement": "TGI", "setting": "MDA-MB-435", "value": "> 100", "unit": "µM"}, {"measurement": "TGI", "setting": "NCI-H522 lung", "value": "> 100", "unit": "µM"}, {"measurement": "TGI", "setting": "T-47D breast", "value": "> 100", "unit": "µM"}, {"measurement": "TGI", "setting": "PC-3 prostate", "value": "> 100", "unit": "µM"}, {"measurement": "TGI", "setting": "OVCAR-4 ovarian", "value": "> 100", "unit": "µM"}, {"measurement": "TGI", "setting": "MALME-3M melanoma", "value": "> 100", "unit": "µM"}, {"measurement": "TGI", "setting": "SF-539 CNS", "value": "> 100", "unit": "µM"}, {"measurement": "TGI", "setting": "SK-MEL-28 melanoma", "value": "> 100", "unit": "µM"}, {"measurement": "TGI", "setting": "NCI/ADR-RES ovarian", "value": "> 100", "unit": "µM"}, {"measurement": "TGI", "setting": "TK-10 renal", "value": "> 100", "unit": "µM"}, {"measurement": "TGI", "setting": "DU-145 prostate", "value": "> 100", "unit": "µM"}, {"measurement": "TGI", "setting": "MCF7 breast", "value": "> 100", "unit": "µM"}, {"measurement": "TGI", "setting": "SK-OV-3 ovarian", "value": "> 100", "unit": "µM"}, {"measurement": "TGI", "setting": "HCT-15 colon", "value": "> 100", "unit": "µM"}, {"measurement": "TGI", "setting": "SR leukemia", "value": "> 100", "unit": "µM"}, {"measurement": "TGI", "setting": "NCI-H460 lung", "value": "> 100", "unit": "µM"}, {"measurement": "TGI", "setting": "MOLT-4 leukemia", "value": "> 100", "unit": "µM"}, {"measurement": "TGI", "setting": "COLO 205 colon", "value": "> 100", "unit": "µM"}, {"measurement": "TGI", "setting": "SNB-19 CNS", "value": "> 100", "unit": "µM"}, {"measurement": "TGI", "setting": "SW-620 colon", "value": "> 100", "unit": "µM"}, {"measurement": "TGI", "setting": "HS 578T breast", "value": "> 100", "unit": "µM"}, {"measurement": "TGI", "setting": "UACC-257 melanoma", "value": "> 100", "unit": "µM"}, {"measurement": "TGI", "setting": "U251 CNS", "value": "> 100", "unit": "µM"}, {"measurement": "TGI", "setting": "786-0 renal", "value": "> 100", "unit": "µM"}, {"measurement": "TGI", "setting": "SF-268 CNS", "value": "> 100", "unit": "µM"}, {"measurement": "TGI", "setting": "A498 renal", "value": "> 100", "unit": "µM"}, {"measurement": "TGI", "setting": "SF-295 CNS", "value": "> 100", "unit": "µM"}]}
